The results in this text go back to patent US20160029628A1, “COMPOUNDS, COMPOSITIONS, AND METHODS FOR REPELLING AN INSECT FROM AN AREA,ARTICLE, AND/OR STRUCTURE” (BAYER CROPSCIENCE LP, priority 2013, published 2016).

One series concerns honeybees. Kind of series: Honeybee repellency at feeding stations, repellent in 50% sucrose solution. The format is in vivo. As to the method: FIG. 1 describes the feeding station arrangement (A and B) for the honeybee repulsion experiments described herein. As set forth in FIG. 1, panel (A) sets forth the bee cage positions on the left portion of panel (A) with the randomized feeding station positions on the right portion of panel (A). Panel (B) sets forth an alignment of the randomized feeding station positions with a distance of two meters between feeding stations. A total of eight feeding stations were evaluated at a ten meter distance in front of the respective bee hives. The feeding stations were placed two meters apart from one another.
Honeybees were trained to deep feeders (eight positions), each containing a 50% sucrose solution for one day. After the honeybees were trained to each feeder, the 50% sucrose feeder at randomized positions 1-8 was replaced with a shallow feeder containing a combination of repelling compounds and a 50% sucrose solution according to Table 3. In accordance with FIGS. 5 and 6, 2% by weight of Camphor oil (T4), Ajowan oil (T5), Camphor powder (T6), Rosemary oil (T7), and 2-Decanone (T8) in combination with a 50% sucrose treatment were added to feeders on day two.
Table 3 describes active agents evaluated for bee repulsion and their randomized feeding station positions. As described in Table 3, T1 (control), T2 (control), T3 (control), T4 (Camphor oil), T5 (Ajowan oil), T6 (Camphor powder), T7 (Rosemary oil), and T8 (2-Decanone).
FIG. 5 evaluates the number of bees visiting a respective feed station over a time interval. FIG. 6 sets forth the mean number of honeybees visiting feeding station over a period of four hours.

Series [1] in a line: Stability test of Poncho 600 with α-terpineol, clothianidin content by HPLC. The series is classed as physicochemical. The settings on record: combined with alpha-terpineol; up to 54° C. for eight days. On the procedure:
Table 5 describes a stability test with a combination of α-terpineol and Poncho 600 evaluated at room temperature, 40° C., and 54° C. at zero time, 2 days, and 8 days as confirmed by HPLC.

The nature of series [2]: Stability test of Poncho 600 with Eugenol, clothianidin content by HPLC. The format is physicochemical. The note with it: combined with Eugenol; up to 54° C. for seven days. On the procedure:
Table 4 describes a stability test with a combination of Eugenol and Poncho evaluated at room temperature, 40° C., and 54° C. at zero time, 3 days, and 7 days as confirmed by high performance liquid chromatography (HPLC).

For `CCCCCCCCC(C)=O` [Compound 2-decanone, 2-decanone], in the series with honeybees (2% by weight with 50% sucrose, 4 hours), the “repellency over the full 4 hour assessment period” value was “highly repellent”. The “repellency at 24 hours” value in the series on honeybees (2% by weight with 50% sucrose) is recorded as “still repellent”; with honeybees (2% by weight with 50% sucrose, listed as 2-Decanone) it was “exhibited repellency”. Besides, in the series on honeybees (relative to camphor oil, ajowan oil, camphor powder, or rosemary oil, FIGS. 5-6), the “repellent effect relative to comparators” value was “larger repellent effect”.
Regarding `CN/C(=N\[N+](=O)[O-])NCc1cnc(Cl)s1` [clothianidin], the “chemical stability of clothianidin content” value in series [1] and in series [2] was “exhibited chemical stability” in each case.
